Reference: US20170304175A1, “COMPOSITION FOR INDUCING FACILITATION OF CELL REJUVENATION COMPRISING GENISTEIN OR EPIGALLOCATECHIN GALLATE” (AMOREPACIFIC CORPORATION, priority 2014, published 2017)

Test system: melanocytes
Assay: Observation of phenotype of melanocytes with an optical microscope
Format: cell-based, Human
Conditions: long-term exposure (1 μM in medium from passage 7 to passage 11/12), FIGS. 4A-4B
Protocol: Human primary melanocytes (Life Technologies, CA, USA) were cultured in a M-254 medium (Gibco BRL, NY, USA) supplemented with a human melanocyte growth supplement (HMGS; Gibco BRL, NY, USA) in a 5% CO2 incubator at […] on a 100-mm culture plate while replacing the medium every other day until the cells occupy 80% of the plate area and then subcultured on another 100-mm culture plate at a ratio of 1:4.
The melanocytes first placed on the 100-mm culture plate were considered as passage 1 (PA1) and subculturing was performed 11 times (PA12).
As a control group, melanocytes were subcultured to passage 11 and passage 12 without any treatment, and as a test group, the cells were subcultured under the same environment as the control group until passage 6, and then subcultured from passage 7 to passage 11 and passage 12 in a medium containing 1 μM genistein or epigallocatechin gallate (EGCG).

SMILES	phenotype of melanocytes of the late cell line
O=C(O[C@@H]1Cc2c(O)cc(O)cc2O[C@@H]1c1cc(O)c(O)c(O)c1)c1cc(O)c(O)c(O)c1 [epigallocatechin gallate (EGCG), epigallocatechin gallate]	recovered similarly to the cells of the early stage of subculturing
O=c1c(-c2ccc(O)cc2)coc2cc(O)cc(O)c12 [genistein]	recovered similarly to the cells of the early stage of subculturing
